Patent US10016515B2, “DMA, a bis-benzimidazole, confers radioprotection to the intestine via Akt/NFκB dual pathway activation” (Jawaharlal Nehru University, priority 2016, dated 2018)

Columns and labels:
[1] = test system: Akt/NFκB pathway in HEK293, MRC5 and A549 cell lines; test: Immunoblot analysis in cell lines; assay type: cell-based, human
Experimental: HEK293, MRC5 and A549 cells were treated as indicated earlier. The cell pellet was resuspended in RIPA buffer and allowed to swell on ice for 30 min. Balb/c intestine tissue and tumor tissues were homogenized in RIPA buffer. Protein concentration was determined using Bradford's Assay (Bangalore Genei). Western blot was performed using standard protocols with primary antibodies against Akt, pAkt (Ser-473), […], mTOR, p70, Bad, PTEN, IKKα/β, p IKKα/β, p53, Bcl2, GAPDH, and NFκB (p65) (Cell Signalling) and horseradish peroxidase-conjugated mouse or rabbit secondary antibody (Abcam). Signals were detected using enhanced chemiluminescence (ECL system, Pierce) on X-ray film.
Cells after treatment were collected by trypsinization and washed twice with ice-cold PBS. Cell pellet was resuspended in five volumes of cytoplasmic extraction buffer (CEB) [10 mM HEPES pH 7.9, 10 mM KCl, 0.1 mM EDTA, 0.3% NP-40 and 1× protease inhibitor cocktail] to the size of cell pellet for 5 min. Protein solution was centrifuged at 3000 rpm for 5 min at 4° C. and supernatant was harvested as cytoplasmic extract.
The cell pellet obtained after extraction of cytoplasmic proteins was resuspended again in CEB without NP-40. It was centrifuged at 3000 rpm for 5 min at 4° C. and supernatant was discarded. Equal volume of nuclear extraction buffer (NEB) [20 mM HEPES pH7.9, 0.4M NaCl, 1 mM EDTA, 25% Glycerol, and 1× protease inhibitor cocktail] was added to nuclear pellet and incubated on ice for 10 min. Supernatant was harvested as nuclear protein extract.

[2] = test system: NFκB Δp65− A549 and scramble A549 cells; test: Clonogenicity assay of NFκB p65 knockdown A549 cells; assay type: cell-based, human
Experimental: 0.8-1×10^6 A549 cells were seeded with media containing 8 μg/ml polybrene. Cells were infected with 0.5 ml lentivirus in fresh media containing polybrene and were incubated for next 24 h. Desired cells were selected against puromycin. NFκB p65 protein knockdown was checked by western blot after 3 days of selection media.
Exponentially growing scrambled and NFκB p65 knockdown A549 cells were treated with 50 μM DMA for 2 h and irradiated with 0, 2, 4, 6 and 8 Gy of radiation dose for clonogenic survival assay. % Radioprotection was calculated by following formula % of Protection in radiation treated cells=(SF(Δp65−)+DMA/SF(Δp65−))×100 where SF is survival fraction in respective conditions.

[3] = test system: melanoma bearing Balb/c mice; details: 300 mg/kg oral (Nimesh et al. 2015); cited from earlier work
[4] = in vivo (earlier work, Nimesh et al., 2015); cited from earlier work
nude mice = test: Nude mice survival after 7Gy TBI; assay type: in vivo, mouse; details: 50 mg/kg i.p. 2 h prior to 7Gy TBI
Experimental: Mice were divided into 4 groups containing 5 animals each. Group 1, sham control; Group 2, DMA treated (50 mg/kg, i.p.); Group 3, TBI 7Gy; Group 4, treated with DMA (50 mg/kg i.p.) prior to TBI 7Gy.

A549 cells [5] = test: Growth kinetics with DMA prior to 6 Gy radiation; assay type: cell-based, human; details: for % growth compared to control: A549, 50 μM DMA prior to 6 Gy; for % radioprotection: A549, 6 Gy
Experimental: (§1) FIG. 2. Radioprotection by DMA Against Radiation in MRC5 and A549 Cell Lines. A) Proliferation of viable MRC5. B) Graphical representation of % survival of MRC5 cell line at 24 and 48 h C) A549 treated with 50 μM DMA in presence and absence of 6 Gy radiation and D) Graphical representation of % survival of A549 cell line at 24 and 48 h. Cell numbers were determined by haemocytometer at 0, 6, 12, 24 and 48 h. Values are mean (±SD) of three independent experiments. *p<0.05 compared to the control group.
(§2) 2 h subsequent to DMA treatment, cells was exposed to γ-irradiation (1.3 Gy/min dose rate) using Co-60 source (Institute of Nuclear Medicine and Allied Sciences, Delhi, India). Following irradiation, cells were incubated for 4 h in a 5% CO2 humidified incubator and processed for further sample preparation.

MRC5 cells [6] = test: Growth kinetics with DMA prior to 6 Gy radiation; assay type: cell-based, human; details: for % growth compared to control: MRC5, 50 μM DMA prior to 6 Gy; for % radioprotection: MRC5, 6 Gy
Experimental: as §1, §2

HEK293 cells [7] = test: Actively proliferating cells by BrdU uptake; assay type: cell-based, human; details: 48 h
Experimental: FIG. 5. […] Tissue sections performed 3 days postirradiation (8Gy) with and without 50 mg/kg bw, i.v. DMA pretreatment with the control and DMA treated tissues (A) Images showing spleen, intestine and liver analysis at magnification 40× objective lens. (B) Small intestine, spleen and lung sections from melanoma tumor bearing mice at 40× & 60× objective lens (C) Immunohistochemical analysis of BrdU uptake in spleen and IL6 protein expression in intestine tissues at 100× objective lens magnification. (D) Graphical representation of actively proliferating HEK293 at 48 h and Balb/c intestinal cells by BrdU uptake under each condition (n=3/group from 2 independent experiments).

HEK293 cells [8] = test: Cytotoxicity by MTT assay; assay type: cell-based, human
Experimental: (§3) Exponentially growing HEK293, MRC5 and A549 cells were plated at cell densities 3000 cells per well in 96-well tissue culture plates. […] Cytotoxicity was measured by MTT assay according to the manufacturer's instructions (Promega, Madison, Wis., USA).

A549 cells [9] = test: Cytotoxicity by MTT assay; assay type: cell-based, human
Experimental: as §3

MRC5 cells [10] = test: Cytotoxicity by MTT assay; assay type: cell-based, human
Experimental: as §3

[11] = Cytotoxicity by MTT assay; assay type: cell-based, human; details: human
Experimental: as §3

[12] = DMA+Radiation, all three cell lines

COc1ccc(-c2nc3cc(-c4nc5cc(N6CCN(C)CC6)ccc5[nH]4)ccc3[nH]2)cc1OC [DMA, 5-(4-methylpiperazin-1-yl)-2-[2′-(3,4-dimethoxyphenyl)-5′-benzimidazolyl]benzimidazole]
NFκB p65 level ([1]; DMA+Radiation vs control and irradiated): increased level | Level of phosphorylated Akt (Ser-473) ([1]; DMA+Radiation, HEK293, MRC5 and A549): increased | IκBα protein level [1, 12]: decrease | Phosphorylation of IKKα and IKKβ [1, 12]: higher | NFκB p65 in cytoplasm and nucleus ([1]; HEK293 cytoplasmic and nuclear extract, DMA prior to radiation): higher expression | PTEN, mTOR and p70 levels ([1]; all three cell lines): could not address any significant changes | Phosphorylated GSK3β ([1]; prior DMA treatment to radiation, all three cell lines): increase | DMF ([2]; NFκB Δp65− A549, 50 μM DMA 2 h): 1.02 | DMF ([2]; scrambled sequence transfected A549, 50 μM DMA 2 h): 1.28 | Protection of tumor tissues [3]: no protection to tumor tissues | Maximum tolerated dose (MTD), no toxicity in vivo [4]: 2000 mg/kg | 30-days survival of nude mice (nude mice): 40% | % growth compared to control (A549 cells [5]; 24 h): 73% | % growth compared to control (A549 cells [5]; 48 h): 68% | % radioprotection (A549 cells [5]; 24 h): 11.1% | % radioprotection (A549 cells [5]; 48 h): 15% | % growth compared to control (MRC5 cells [6]; 24 h): 58.62% | % growth compared to control (MRC5 cells [6]; 48 h): 74% | % radioprotection (MRC5 cells [6]; 24 h): 20.69% | % radioprotection (MRC5 cells [6]; 48 h): 29% | Cells at active S phase (HEK293 cells [7]; HEK293, DMA treated): 30% | S phase cells (HEK293 cells [7]; HEK293, DMA+Radiation (5Gy)): came back to normal | Concentration at which DMA was cytotoxic (HEK293 cells [8]; HEK293): 50 µM | IC50 at short term incubation (HEK293 cells [8]; HEK293, 50 μM DMA, 2 h): no observable IC50 | IC50 at short term treatment (HEK293 cells [8]; HEK293, DMA for 2 h): no observable IC50 | IC50 at short term incubation (A549 cells [9]; A549, 50 μM DMA, 2 h): no observable IC50 | IC50 (cytotoxicity) (A549 cells [9]; A549, 1-100 μM, up to 72 h): could not be achieved | IC50 at short term treatment (A549 cells [9]; A549, DMA at 509 μM for 2 h): no observable IC50 | IC50 at short term incubation (MRC5 cells [10]; MRC5, 50 μM DMA, 2 h): no observable IC50 | IC50 at short term treatment (MRC5 cells [10]; MRC5, DMA at 509 μM for 2 h): no observable IC50 | IC50 ([11]; A549 cells, A549, 1-100 μM, up to 72 h): > 100 µM | IC50 at 24 h ([11]; MRC5 cells, MRC-5 cells, 24 h): 92.5 µM
